Test results taken from patent US12171229B2, “Heteroaryl-triazole and heteroaryl-tetrazole compounds as pesticides” (BAYER AKTIENGESELLSCHAFT, priority 2018, dated 2024).

Experiments:
Assay type in all cases: in vivo
Ctenocephalides felis [1] = assay: Ctenocephalides felis in-vitro contact test, adult cat flea; details: 5 μg/cm^2 (=500 g/ha), after 48 hours, adult cat fleas, read-out: efficacy (fleas dead or moribund)
Protocol: Ctenocephalides Felis—In-Vitro Contact Tests Adult Cat Flea 9 mg compound is solved in 1 ml acetone and diluted with acetone to the desired concentration. 250 μl of the test solution is filled in 25 ml glass test tubes and homogeneously distributed on the inner walls by rotation and tilting on a shaking device (2 h at 30 rpm). With a compound concentration of 900 ppm, an inner surface of 44.7 cm^2 and a homogeneous distribution, a dose of 5 μg/cm^2 is achieved. After the solvent has evaporated, each test tube is filled with 5-10 adult cat fleas (Ctenocephalides felis), closed with a perforated lid and incubated in a lying position at room temperature and relative humidity. After 48 hours efficacy is determined. The fleas are patted on the ground of the tubes and are incubated on a heating plate at 45-50° C. for at most 5 minutes. Immotile or uncoordinated moving fleas, which are not able to escape the heat by climbing upwards, are marked as dead or moribund. […] An efficacy of 100% means all fleas are dead or moribund; 0% means no fleas are dead or moribund.

Boophilus microplus = Boophilus microplus injection test; details: Rhipicephalus microplus, 168 h; 20 μg/animal injected into the abdomen; adult engorged female ticks; egg deposition after 7 days; read-out: efficacy (infertile eggs)
Outline: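 Five engorged adult female ticks received a 1 μl abdominal injection of compound in DMSO. They were then held in a climate chamber, with egg deposition checked after 7 days. Unclear eggs were kept until hatching at about 42 days, and efficacy was scored as the percentage of infertile eggs.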

Ctenocephalides felis [2] = assay: Ctenocephalides felis oral test; details: 48 h, 100 ppm in cattle blood, after 2 days, adult unfed cat fleas
Outline: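 About 20 unfed adult cat fleas feed through parafilm on cattle blood dosed with compound from a DMSO stock. Blood chamber at 37° C, fleas at room temperature. Percent mortality scored after 2 days.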

Diabrotica balteata = Diabrotica balteata spray test; details: Diabrotica balteata, in Triticum aestivum, 168 h, after 7 days, larvae on wheat seeds, read-out: efficacy (seedlings grown up); for pest or weed control at 80 µg/disc, 250 g/ha: 80 μg/well (=250 g/ha); for pest or weed control at 160 µg/disc, 500 g/ha: 160 μg/well (=500 g/ha)
Outline: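 Germinated wheat seeds (5 per well, 1 day on agar) sprayed with compound diluted in water containing 1000 ppm emulsifier, then infested with 10–20 D. balteata larvae. Efficacy scored after 7 days: 100% = seedlings like untreated uninfested control, 0% = no seedlings grown.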

Nezara viridula = Nezara viridula spray test; details: 96 h, after 4 days, larvae on barley plants
Outline: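 Barley plants infested with Nezara viridula larvae were sprayed with compound diluted in water containing 1000 ppm emulsifier. Percent mortality was scored 4 days later, where 100% means all bugs killed and 0% none.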

Nilaparvata lugens = Nilaparvata lugens spray test; details: 336 h, after 14 days, rice plants
Protocol: Nilaparvata lugens—Spray Test
To produce a suitable preparation of active compound, 1 part by weight of active compound is mixed with the stated amount of solvents and is diluted with water, containing an emulsifier concentration of 1000 ppm, to the desired concentration. Further test concentrations are prepared by dilution with emulsifier containing water.
Rice plants (Oryza sativa) are sprayed with a preparation of the active ingredient of the desired concentration and the plants are infested with the brown planthopper (Nilaparvata lugens).
After 14 days mortality in % is determined. 100% means all planthoppers have been killed and 0% means none of the planthoppers have been killed.

Spodoptera frugiperda = Spodoptera frugiperda spray test; details: 168 h, after 7 days, larvae on maize leaf sections
Outline: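 Maize leaf sections were sprayed with compound formulated in solvent and diluted in water containing 1000 ppm emulsifier, then infested with fall armyworm larvae after drying. Percent mortality was scored after 7 days (100% = all caterpillars dead, 0% = none).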

Myzus persicae [3] = assay: Myzus persicae oral test; details: 120 h, 4 ppm, after 5 days
Outline: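 Aphid mortality (%) was recorded 5 days after a mixed Myzus persicae population began sucking, through parafilm, on compound solutions (acetone stock diluted with water) combined with sugar-supplemented IPL41 medium.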

Myzus persicae [4] = assay: Myzus persicae spray test; details: foliar, 120 h, after 5 days, Chinese cabbage leaf disks
Outline: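 Chinese cabbage leaf disks infested with all aphid instars were sprayed with compound diluted in water containing emulsifier (1000 ppm). Mortality (%) was scored after 5 days, 100% meaning all aphids killed.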

[5] = test system: Aedes aegypti strain MONHEIM; assay: Aedes aegypti test (AEDSAE surface treatment & contact assay); details: 24 hours after contact, read-out: efficacy (mortality); for mortality at 4 mg/m2: surface concentration 4 mg/m^2, exposure 30 minutes
Outline: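 Compound dissolved in acetone (2 mg/ml) with 2000 ppm rapeseed oil methyl ester, applied to glazed tile and dried; adult strain MONHEIM mosquitoes exposed 30 minutes. Percent mortality scored 24 hours after contact.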

[6] = test system: Culex quinquefasciatus strain P00; assay: Culex quinquefasciatus test (CULXFA surface treatment & contact assay); details: 24 hours after contact, read-out: efficacy (mortality)
Protocol: Culex Quinquefasciatus Test (CULXFA Surface Treatment & Contact Assay)
(§1) Solvent: Aceton+2000 ppm rapeseed oil methyl ester (RME)
(§2) In order to produce a sufficient, active ingredient containing solution it is necessary to solve the test compound in the solvent-mix (acetone at 2 mg/ml/RME 2000 ppm). This solution is pipetted onto a glazed tile and after evaporation of the acetone, adult mosquitoes of the species Culex quinquefasciatus strain P00 are placed onto the dried surface. The exposure time is 30 minutes.
(§3) Mortality in percent (%) is determined 24 hours after contact of the insects to the treated surface. 100% mortality means that all tested insects are dead, whereas 0% means that no insect died.

[7] = test system: Anopheles funestus strain FUMOZ-R; assay: Anopheles funestus test (ANPHFU surface treatment & contact assay); details: 24 hours after contact, read-out: efficacy (mortality)
Protocol: Anopheles funestus Test (ANPHFU Surface Treatment & Contact Assay)
as §1
as §2, with “Anopheles funestus” for “Culex quinquefasciatus”, “FUMOZ-R (Hunt et al., Med. Vet. Entomol. 2005 September; 19(3): 271-275)” for “P00”
as §3

[8] = test system: Musca domestica strain WHO-N; assay: Musca domestica test (MUSCDO surface treatment & contact assay); details: 24 hours after contact, read-out: efficacy (mortality)
Protocol: Musca domestica test (MUSCDO surface treatment & contact assay)
as §1
as §2, with “flies” for “mosquitoes”, “Musca domestica” for “Culex quinquefasciatus”, “WHO-N” for “P00”
Mortality in percent (%) is determined 24 hours after contact of the insects to the treated surface. 100% morality means that all tested insects are dead, whereas 0% means that no insect died.

[9] = test system: cattle ticks (Boophilus microplus) strane Parhurst, SP-resistant; assay: Boophilus microplus dip test; details: Rhipicephalus microplus, 168 h, engorged adult female cattle ticks, egg deposition after 7 days, read-out: efficacy (infertile eggs)
Protocol: Boophilus microplus—Dip Test
Test animal: cattle ticks (Boophilus microplus) strane Parhurst, SP-resistant
Solvent: dimethyl sulfoxide
To produce a suitable preparation of active compound, 10 mg of active compound are dissolved in 0.5 ml solvent, and the concentrate is diluted with water to the desired concentration.
This compound solution is pipetted into tubes. 8-10 engorged, adult, female cattle ticks (Boophilus microplus) are placed in perforated tubes. These tubes are immersed in the aqueous compound solution until the ticks are completely moistened. After the liquid has drained off, the ticks are transferred to a filter paper in a plastic tray and stored in a climate chamber.
After 7 days egg deposition of fertile eggs is monitored. Eggs where fertility is not visible are stored in a climate chamber till hatching after about 42 days. An efficacy of 100% means all eggs are infertile; 0% means all eggs are fertile.

[10] = surface concentration 20 mg/m^2, exposure 30 minutes
[11] = surface concentration 4 mg/m^2, exposure 30 minutes

| SMILES | pest or weed control at 5 µg/cm2 (Ctenocephalides felis [1]) | pest or weed control at 0.02 mg (Boophilus microplus) | mortality at 100 ppm (Ctenocephalides felis [2]) | pest or weed control at 80 µg/disc, 250 g/ha (Diabrotica balteata) | pest or weed control at 160 µg/disc, 500 g/ha (Diabrotica balteata) | mortality at 100 g/ha (Nezara viridula) | mortality at 500 g/ha (Nezara viridula) | mortality at 500 g/ha (Nilaparvata lugens) | mortality at 100 g/ha (Spodoptera frugiperda) | mortality at 500 g/ha (Spodoptera frugiperda) | mortality at 4 ppm (Myzus persicae [3]) | mortality at 100 g/ha (Myzus persicae [4]) | mortality at 500 g/ha (Myzus persicae [4]) | further results |
| --- | --- | --- | --- | --- | --- | --- | --- | --- | --- | --- | --- | --- | --- | --- |
| CC(NC(=S)c1cc(Cl)cc(C(F)(F)F)c1)c1ncnn1-c1ccc(C#N)cn1 (stereo in doubt) [Example I-080, 3-chloro-N-{(1R)-1-[1-(5-cyanopyridin-2-yl)-1H-1,2,4-triazol-5-yl]ethyl}-5-(trifluoromethyl)benzenecarbothioamide] | 100% | 100% | 100% | 100% | 80% | 100% | 100% | 100% | 100% | 100% | – | – | – | – |
| C[C@H](NC(=O)c1cc(Cl)cc(C(F)(F)F)c1)c1ncnn1-c1ncc(F)cc1F [Example I-014] | – | 100% | 100% | 100% | 100% | 100% | 100% | 100% | 100% | 100% | 100% | 90% | 90% | mortality at 4 mg/m2 [5]: 90 to 100%; mortality at 20 mg/m2 [5, 10]: 90 to 100%; mortality at 4 mg/m2 [6, 11]: 90 to 100%; mortality at 20 mg/m2 [6, 10]: 90 to 100%; mortality at 4 mg/m2 [7, 11]: 85 to 100%; mortality at 20 mg/m2 [7, 10]: 90 to 100%; mortality at 4 mg/m2 [8, 11]: 90 to 100%; mortality at 20 mg/m2 [8, 10]: 90 to 100% |
| C[C@H](NC(=O)c1cc(Cl)cc(C(F)(F)F)c1)c1ncnn1-c1ccc(N(S(C)(=O)=O)S(C)(=O)=O)cn1 [Example I-037] | 100% | 100% | 100% | 100% | 100% | 100% | 100% | 100% | 100% | – | – | 90% | 90% | pest or weed control at 100 ppm [9]: 100% |
| C[C@H](NC(=O)c1cc(Cl)cc(C(F)(F)F)c1)c1ncnn1-c1ccc(OCC(F)(F)F)cn1 [Example I-039, 3-chloro-N-[(1S)-1-{1-[5-(2,2,2-trifluoroethoxy)pyridin-2-yl]-1H-1,2,4-triazol-5-yl}ethyl]-5-(trifluoromethyl)benzamide] | – | 100% | 100% | 100% | 100% | – | – | 100% | 100% | 100% | – | – | – | mortality at 4 mg/m2 [5]: 90 to 100% |
| CC[C@H](NC(=O)c1cc(C(F)(F)F)cc(C(F)(F)F)c1)c1ncnn1-c1ccc([N+](=O)[O-])cn1 [Example I-069] | – | 100% | – | – | 100% | – | – | 70% | – | 100% | – | – | – | – |
| CC[C@H](NC(=O)c1cc(Cl)cc(OC(F)(F)F)c1)c1ncnn1-c1ccc(C#N)cn1 [Example I-070] | – | 100% | 80% | – | – | – | – | 100% | 100% | 100% | – | – | – | – |
| C[C@H](NC(=O)c1cc(C(F)(F)F)cc(C(F)(F)F)c1)c1ncnn1-c1ncc(F)cc1F [Example I-077] | 100% | 100% | 100% | 100% | 100% | 100% | 100% | 100% | 100% | 100% | 100% | 90% | 90% | – |
| C[C@H](NC(=O)c1cc(Cl)cc(C(F)(F)F)c1)c1ncnn1-c1ccc(C(=O)NCC(F)(F)F)cn1 [Example I-078] | 90% | 100% | 100% | 100% | 80% | 90% | 100% | 100% | 100% | 100% | 100% | – | – | – |
| CC[C@H](NC(=O)c1cc(C(F)(F)F)cc(C(F)(F)F)c1)c1ncnn1-c1ccc(NC(=O)C2CC2)cn1 [Example I-094] | – | – | 100% | 100% | – | – | 100% | 100% | – | – | – | – | – | – |
